Assay results reported in ChEMBL document CHEMBL1201862, “PubChem BioAssay data set” (2004).
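Briefly, cells in 96-well plates were exposed to five compound concentrations for 48 h, and endpoints were estimated by linear interpolation. The concentration for 50% growth inhibition is given as GI50.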 Active and inactive are the calls of the source. No stated cut-off is given here; in the data, active = GI50 up to about 1.1 µM and inactive = higher.

Experiments:
Assay in all cases: DTP human tumour cell line panel, 48 h
786-0 = test system: 786-0
A498 = test system: A498
A549 = test system: A549
ACHN = test system: ACHN
BT-549 = test system: BT-549
CAKI-1 = test system: CAKI-1
CCRF-CEM = test system: CCRF-CEM
COLO 205 = test system: COLO 205
DU-145 = test system: DU-145
EKVX = test system: EKVX
HCC 2998 = test system: HCC 2998
HCT-116 = test system: HCT-116
HCT-15 = test system: HCT-15
HOP-62 = test system: HOP-62
HT-29 = test system: HT-29
Hs-578T = test system: Hs-578T
IGROV-1 = test system: IGROV-1
K562 = test system: K562
KM12 = test system: KM12
M14 = test system: M14
MCF7 = test system: MCF7
MDA-MB-231 = test system: MDA-MB-231
MDA-MB-435 = test system: MDA-MB-435
MDA-N = test system: MDA-N
MOLT-4 = test system: MOLT-4
Malme-3M = test system: Malme-3M
NCI-H226 = test system: NCI-H226
NCI-H23 = test system: NCI-H23
NCI-H460 = test system: NCI-H460
NCI-H522 = test system: NCI-H522
NCI/ADR-RES = test system: NCI/ADR-RES
OVCAR-3 = test system: OVCAR-3
OVCAR-4 = test system: OVCAR-4
OVCAR-5 = test system: OVCAR-5
OVCAR-8 = test system: OVCAR-8
PC-3 = test system: PC-3
RPMI-8226 = test system: RPMI-8226
RXF 393 = test system: RXF 393
SF-268 = test system: SF-268
SF-295 = test system: SF-295
SK-MEL-28 = test system: SK-MEL-28
SK-MEL-2 = test system: SK-MEL-2
SK-MEL-5 = test system: SK-MEL-5
SK-OV-3 = test system: SK-OV-3
SN12C = test system: SN12C
SNB-19 = test system: SNB-19
SNB-75 = test system: SNB-75
SR = test system: SR
SW-620 = test system: SW-620
T47D = test system: T47D
TK-10 = test system: TK-10
U-251 = test system: U-251
UACC-257 = test system: UACC-257
UACC-62 = test system: UACC-62
UO-31 = test system: UO-31
HL-60 = test system: HL-60
LOX IMVI = test system: LOX IMVI
HOP-92 = test system: HOP-92

Measured: GI50

O=c1c2sc3ccccc3sc=2c(=O)c2c(Cl)c(Cl)c(Cl)c(Cl)c12
inactive: 786-0 > 100 µM | A498 > 100 µM | A549 > 100 µM | ACHN > 100 µM | BT-549 > 100 µM | CAKI-1 > 100 µM | CCRF-CEM > 100 µM | COLO 205 > 100 µM | DU-145 > 100 µM | EKVX > 100 µM | HCC 2998 96.2 µM | HCT-116 > 100 µM | HOP-62 > 100 µM | HT-29 > 100 µM | Hs-578T 38.4 µM | IGROV-1 > 100 µM | K562 34.8 µM | KM12 > 100 µM | M14 > 100 µM | MCF7 > 100 µM | MDA-MB-231 > 100 µM | MDA-MB-435 > 100 µM | MDA-N > 100 µM | MOLT-4 > 100 µM | Malme-3M > 100 µM | NCI-H226 > 100 µM | NCI-H23 > 100 µM | NCI-H460 > 100 µM | NCI-H522 > 100 µM | NCI/ADR-RES > 100 µM | OVCAR-3 > 100 µM | OVCAR-4 > 100 µM | OVCAR-5 > 100 µM | OVCAR-8 > 100 µM | PC-3 > 100 µM | RPMI-8226 42 µM | RXF 393 > 100 µM | SF-268 > 100 µM | SF-295 > 100 µM | SK-MEL-28 > 100 µM | SK-MEL-2 > 100 µM | SK-MEL-5 > 100 µM | SK-OV-3 > 100 µM | SN12C > 100 µM | SNB-19 > 100 µM | SNB-75 > 100 µM | SR > 100 µM | SW-620 > 100 µM | T47D > 100 µM | TK-10 > 100 µM | U-251 > 100 µM | UACC-257 > 100 µM | UACC-62 > 100 µM | UO-31 > 100 µM
39.7 µM: HCT-15

CCCC1CC(=O)NC(=O)C1C(=O)OC(C)(C)C (stereo unspecified)
inactive: 786-0 > 100 µM | A498 > 100 µM | ACHN > 100 µM | BT-549 > 100 µM | CAKI-1 > 100 µM | COLO 205 > 100 µM | DU-145 > 100 µM | EKVX > 100 µM | HCC 2998 > 100 µM | HCT-116 > 100 µM | HL-60 > 100 µM | HOP-62 > 100 µM | HT-29 > 100 µM | Hs-578T > 100 µM | IGROV-1 > 100 µM | K562 > 100 µM | KM12 > 100 µM | LOX IMVI > 100 µM | MCF7 > 100 µM | MDA-MB-231 > 100 µM | MDA-MB-435 > 100 µM | MDA-N > 100 µM | MOLT-4 > 100 µM | Malme-3M > 100 µM | NCI-H226 > 100 µM | NCI-H23 > 100 µM | NCI-H460 > 100 µM | NCI-H522 > 100 µM | NCI/ADR-RES > 100 µM | OVCAR-3 > 100 µM | OVCAR-4 > 100 µM | OVCAR-5 > 100 µM | OVCAR-8 > 100 µM | PC-3 > 100 µM | RPMI-8226 > 100 µM | RXF 393 > 100 µM | SF-268 > 100 µM | SF-295 > 100 µM | SK-MEL-28 > 100 µM | SK-MEL-2 > 100 µM | SK-MEL-5 > 100 µM | SN12C > 100 µM | SNB-19 > 100 µM | SNB-75 > 100 µM | SR 64.7 µM | SW-620 > 100 µM | T47D > 100 µM | TK-10 > 100 µM | U-251 > 100 µM | UACC-257 > 100 µM | UACC-62 > 100 µM | UO-31 > 100 µM
> 100 µM: HCT-15

CC(=O)O[C@H]1[C@H](OC(=O)CC(C)(O)CC(=O)O)C[C@]2(C)C3=C(CCC2C1(C)C)[C@]1(C)CC[C@H]([C@H]2CC[C@H](C(C)(C)O)OC2O)[C@@]1(C)[C@@H](O)C3 (stereo partly specified)
17.2 µM: HCT-15
inactive: 786-0 18.4 µM | A498 12.9 µM | A549 32.4 µM | ACHN 15.8 µM | BT-549 15.1 µM | CAKI-1 16.9 µM | CCRF-CEM 22 µM | DU-145 25.8 µM | EKVX 17.4 µM | HCC 2998 15.8 µM | HCT-116 20.7 µM | HL-60 17.7 µM | HOP-62 16.3 µM | HOP-92 16.9 µM | HT-29 16.3 µM | Hs-578T 16 µM | IGROV-1 17.1 µM | K562 26.2 µM | KM12 19.7 µM | LOX IMVI 18.5 µM | M14 17.8 µM | MCF7 24 µM | MDA-MB-231 14.9 µM | MDA-MB-435 19.1 µM | MDA-N 18.1 µM | MOLT-4 19 µM | Malme-3M 23.7 µM | NCI-H226 23.8 µM | NCI-H23 16.6 µM | NCI-H460 15.3 µM | NCI/ADR-RES > 100 µM | OVCAR-3 16.1 µM | OVCAR-4 19.7 µM | OVCAR-5 17.3 µM | OVCAR-8 18.7 µM | PC-3 18.3 µM | RPMI-8226 20.9 µM | SF-295 18.3 µM | SK-MEL-28 16.9 µM | SK-MEL-2 18.8 µM | SK-MEL-5 17.2 µM | SK-OV-3 16.7 µM | SN12C 17.5 µM | SNB-19 18.8 µM | SR 25.6 µM | SW-620 14.1 µM | T47D 20.9 µM | TK-10 30.9 µM | U-251 19.8 µM | UACC-257 19.4 µM | UACC-62 19.4 µM | UO-31 13.1 µM
